Laboratory results published in US6573254B1, “Method for the stimulation of sperm production and gonadal development in animals” (University of Maryland, priority 1998, dated 2003).

Columns and labels:
male broiler chicks [1] = test: Daily plasma LH immediately following dietary administration of 0.2% SMZ, from one week of age; assay type: in vivo, chicken; conditions: 0.2% SMZ diet from one week of age, FIG. 6
Text: FIG. 6 depicts a graph showing daily levels of LH immediately following dietary administration of 0.2% SMZ, beginning at one week of age (*=p<0.05).
(§1) Blood samples were taken starting at day of SMZ administration and weekly following initiation of the treatment.

broiler breeders = test: 0.2% SMZ in grower diet during photoperiodic phase of broilerization (weeks 20-28, LD 14:10); assay type: in vivo, chicken; conditions: p≦0.05
Text: FIGS. 7A and 7B depict bar graphs showing testis weight response (7A) and plasma LH (7B) resulting from the “photoperiodic” phase of broilerization plus 0.2% SMZ added to a grower diet from 20 to 28 weeks of age. Testes and blood were sampled at 28 weeks of age. Photoperiod=LD 14:10.
FIGS. 8A and 8B show plasma FSH (8A) and testosterone (8B) resulting from blood samples taken as described with respect to FIGS. 7A and 7B.

male broiler chicks [2] = test: 0.2% SMZ in starter ration during genetic selection phase of broilerization, from one week of age; assay type: in vivo, chicken
Text: FIG. 4 depicts a bar graph showing the testes response resulting from the “genetic selection” phase of broilerization (see FIG. 1) plus 0.2% sulfamethazine (SMZ) added to a standard starter ration at one week of age.
FIGS. 5A and 5B depict graphs showing weekly levels of plasma luteinizing hormone (LH; 5A) and follicle stimulating hormone (FSH; 5B) in male broiler chicks fed a diet with 0.2% SMZ beginning at one week of age (*=p[…]0.05).
as §1

broiler chicks [3] = test: 0.2% SMZ in standard broiler ration, one to four weeks of age, continuous light versus LD 8:16; assay type: in vivo, chicken; conditions: 1-4 weeks of age
Protocol: FIG. 9 depicts a bar graph showing testes weight following 0.2% SMZ (1-4 weeks of age) in chicks exposed to LD 24:0 or LD 8:16.
In a further study using broiler chicks, SMZ at 0.2% was added to a standard broiler ration and fed to chicks from one to four weeks of age. One group was raised under continuous light while a second group was exposed to a photoperiod of LD 8:16. […] Although food intake was not measured in this experiment, body weight was taken at the beginning and end of the study. […] Sulfamethazine has a stimulatory effect upon testes growth when chicks are exposed to a long photoperiod. One possible interpretation is that SMZ appears to facilitate or amplify the stimulatory effect of long-day light on gonadal development in male chicks.

broiler chicks [4] = conditions: cited from earlier work
chicks = conditions: ICV administration to chicks; cited from earlier work

Compound: Cc1cc(C)nc(NS(=O)(=O)c2ccc(N)cc2)n1 [SMZ, Sulfamethazine]
- time until plasma LH was significantly elevated after consuming feed containing SMZ (male broiler chicks [1]): ≤ 48 h
- plasma LH (broiler breeders; 0.2% SMZ weeks 20-28, LD 14:10, blood at week 28, FIG. 7B): significantly elevated
- plasma FSH (broiler breeders; 0.2% SMZ weeks 20-28, LD 14:10, blood at week 28, FIG. 8A): significantly elevated
- plasma testosterone (broiler breeders; 0.2% SMZ weeks 20-28, LD 14:10, blood at week 28, FIG. 8B): significantly elevated
- testis weight versus controls (broiler breeders; 0.2% SMZ weeks 20-28, LD 14:10, sampled at 28 weeks, FIG. 7A): significantly heavier than controls
- plasma luteinizing hormone (LH), weekly levels (male broiler chicks [2]; 0.2% SMZ diet from one week of age, weekly blood samples, FIG. 5A): significantly increased
- plasma follicle stimulating hormone (FSH), weekly levels (male broiler chicks [2]; 0.2% SMZ diet from one week of age, weekly blood samples, FIG. 5B): significantly increased
- rate of testes growth (male broiler chicks [2]; 0.2% SMZ in starter ration from one week of age, FIG. 4): significantly increased
- semen production (male broiler chicks [2]; 0.2% SMZ in starter ration, by nine weeks of age): produced viable semen
- testes growth (broiler chicks [3]; continuous light (LD 24:0), p≦0.05, FIG. 9): significantly elevated
- progonadal effects (testes weight) (broiler chicks [3]; short photoperiod LD 8:16, FIG. 9): markedly attenuated
- body weight, long-day versus short-day SMZ treated groups (broiler chicks [3]; weighed at beginning and end of study): No significant difference
- plasma gonadotropins (broiler chicks [4]; broiler chicks): increases
- testes development (broiler chicks [4]; broiler chicks): significantly increases
- thyroid hormone (broiler chicks [4]; broiler chicks): transiently suppresses
- number of immuno-stained neuropeptide Y (NPY) neurons (broiler chicks [4]; broiler chicks, mediobasal hypothalamus and infundibular nucleus (IN)): increases
- comb coloration (side effect) (broiler chicks [4]; chronic use of SMZ): marked red coloration of the comb
- size of comb and testes (side effect) (broiler chicks [4]; chronic use of SMZ): increased size of both comb and testes

Compound: neuropeptide Y [NPY]
- growth of the testes (chicks): stimulates
